Laboratory results as given in patent US5952323A, “Carbapenem antibiotic” (Merck & Co., Inc., priority 1998, dated 1999).
Read-outs that look alike come from different tables or passages of the source.

Experiments:
[1] = assay type: physicochemical; conditions: 25° C.
Protocol: The final pH of the solution is shown below. Solution stability of this intravenous formulation was determined at 25° C. with the following results.

[2] = test system: dehydropeptidase (DHP); experiment: Susceptibility to attack by dehydropeptidase (DHP); assay type: in vitro ADME; conditions: compared with naturally occurring carbapenems
Text: The compound of formula I is of the broad class known as carbapenems. Naturally occurring carbapenems are susceptible to attack by a renal enzyme known as dehydropeptidase (DHP). This attack or degradation may reduce the efficacy of the carbapenem antibacterial agent. […] However, use of a DHP inhibitor is optional and is contemplated as being included in the present invention. Inhibitors of DHP and heir use with carbapenem antibacterial agents are disclosed in European Patent Applications No. 79102616.4, filed Jul. 24, 1979 (Patent No. 007 614); and No. 82107174.3, filed Aug. 9, 1982 (Publication No. 072 014)!.
The compound of the present invention may, where DHP inhibition is desired or necessary, be combined or used with the appropriate DHP inhibitor as described in the aforesaid patents and published application. The cited European Patent Application defines the procedure for determining DHP susceptibility of the present carbapenems and disclose suitable inhibitors, combination compositions and methods of treatment.

[3] = pH of the solution upon dissolution; assay type: physicochemical; conditions: monosodium salt of compound I
Text: The compositions of the present invention are generally formulated using a carbon dioxide source. Preferred sources of carbon dioxide are carbon dioxide (gas, liquid or solid), carbonates and bicarbonates, and more preferably sodium carbonate and sodium bicarbonate, which can be incorporated into the formulation, such that an appropriate pH, e.g., about 6.2-8.5, is obtained upon dissolution. The native pH of the monosodium salt of compound I is approximately 5.4.
One formulation that is of particular interest is comprised of about 3-6 parts by weight, and preferably about 4.5 parts by weight, of compound I, or the pharmaceutically acceptable salt, stabilized form, prodrug or hydrate thereof, and 1 part by weight of sodium bicarbonate. Preferably the carbapenem is in the form of the monosodium salt. The pH which results upon dissolution of this formulation is approximately 6.5. Formulating the drug in this manner can extend the stability of the product in solution.
Another formulation that is of particular interest is comprised of about 4-10 parts by weight, and preferably about 6.7 parts by weight, of the compound of formula I, or the pharmaceutically acceptable salt, stabilized form, prodrug or hydrate thereof, and 1 part by weight sodium carbonate. Preferably the carbapenem is in the form of the monosodium salt. […]

SMILES: CC(O)C1C(=O)N2C(C(=O)O)=C(SC3CNC(C(=O)Nc4cccc(C(=O)O)c4)C3)C(C)C12 (stereo not shown) [Compound I]
- final pH ([1]; 12 mg/mL (marked *)): 7.4
- k ([1]; 12 mg/mL (marked *)): 0.004994 h⁻¹
- t 90% ([1]; 12 mg/mL (marked *)): 21.0 h
- initial pH ([1]; 12 mg/mL (marked *), intravenous formulation): 7.0
- final pH ([1]; 36 mg/mL): 7.3
- k ([1]; 36 mg/mL): 0.01044 h⁻¹
- t 90% ([1]; 36 mg/mL): 7.3 h
- initial pH ([1]; 36 mg/mL, intravenous formulation with sodium bicarbonate 8.0 mg/mL, sodium chloride 4.0 mg/mL): 6.7
- susceptibility to attack by dehydropeptidase (DHP) [2]: significantly less subject to such attack
- native pH [3]: approximately 5.4
